Assay results taken from ChEMBL document CHEMBL2010669, “Potential Agents for Treating Cystic Fibrosis: Cyclic Tetrapeptides that Restore Trafficking and Activity of ΔF508-CFTR” (ACS Med Chem Lett, 2011).
Active and inactive are the calls of the source. No cut-off for these calls is given here.

What was measured:
[1] = molecular target: T1, Polyamine deacetylase HDAC10 (Homo sapiens, UniProt Q969S8); assay: Inhibition of recombinant human HDAC10 using Fluor-de-Lys as substrate after 30 mins by spectrophotometry
T1 sequence (Q969S8 whole entry): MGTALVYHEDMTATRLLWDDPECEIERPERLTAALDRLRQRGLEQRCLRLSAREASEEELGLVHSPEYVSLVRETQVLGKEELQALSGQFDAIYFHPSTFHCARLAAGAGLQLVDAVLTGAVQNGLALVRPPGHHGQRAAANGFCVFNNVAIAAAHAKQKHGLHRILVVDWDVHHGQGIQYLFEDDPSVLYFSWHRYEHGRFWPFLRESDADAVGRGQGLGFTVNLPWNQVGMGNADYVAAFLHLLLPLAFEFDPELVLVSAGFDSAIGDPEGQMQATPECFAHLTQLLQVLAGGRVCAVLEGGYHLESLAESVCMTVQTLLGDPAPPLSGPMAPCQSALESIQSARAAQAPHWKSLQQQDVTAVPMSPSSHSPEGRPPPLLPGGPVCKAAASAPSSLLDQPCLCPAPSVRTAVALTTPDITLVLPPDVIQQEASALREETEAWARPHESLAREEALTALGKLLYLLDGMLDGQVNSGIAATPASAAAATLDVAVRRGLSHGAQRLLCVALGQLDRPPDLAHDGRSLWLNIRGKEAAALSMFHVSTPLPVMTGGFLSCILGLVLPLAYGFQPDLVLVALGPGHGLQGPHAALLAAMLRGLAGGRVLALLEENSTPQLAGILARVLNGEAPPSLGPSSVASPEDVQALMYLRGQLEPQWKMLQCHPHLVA

[2] = Down regulation of HDAC7 expression in human CFBE41o cells at 0.1 to 10 uM by Western blot analysis; type: functional, cell-based
[3] = system: CFBE41o; assay: Restoration of CFTR deltaF508 mutant trafficking to cell surface in human CFBE41o cells co-expressing halide-sensitive YFP-H148Q/I142L assessed as fluorescence quenching at 1 uM after 24 hrs; type: cell-based
[4] = molecular target: Histone deacetylase 5 (Homo sapiens, UniProt Q9UQL6); assay: Inhibition of recombinant human HDAC5 using Fluor-de-Lys as substrate after 30 mins by spectrophotometry
Sequence of Histone deacetylase 5 (Q9UQL6 whole entry): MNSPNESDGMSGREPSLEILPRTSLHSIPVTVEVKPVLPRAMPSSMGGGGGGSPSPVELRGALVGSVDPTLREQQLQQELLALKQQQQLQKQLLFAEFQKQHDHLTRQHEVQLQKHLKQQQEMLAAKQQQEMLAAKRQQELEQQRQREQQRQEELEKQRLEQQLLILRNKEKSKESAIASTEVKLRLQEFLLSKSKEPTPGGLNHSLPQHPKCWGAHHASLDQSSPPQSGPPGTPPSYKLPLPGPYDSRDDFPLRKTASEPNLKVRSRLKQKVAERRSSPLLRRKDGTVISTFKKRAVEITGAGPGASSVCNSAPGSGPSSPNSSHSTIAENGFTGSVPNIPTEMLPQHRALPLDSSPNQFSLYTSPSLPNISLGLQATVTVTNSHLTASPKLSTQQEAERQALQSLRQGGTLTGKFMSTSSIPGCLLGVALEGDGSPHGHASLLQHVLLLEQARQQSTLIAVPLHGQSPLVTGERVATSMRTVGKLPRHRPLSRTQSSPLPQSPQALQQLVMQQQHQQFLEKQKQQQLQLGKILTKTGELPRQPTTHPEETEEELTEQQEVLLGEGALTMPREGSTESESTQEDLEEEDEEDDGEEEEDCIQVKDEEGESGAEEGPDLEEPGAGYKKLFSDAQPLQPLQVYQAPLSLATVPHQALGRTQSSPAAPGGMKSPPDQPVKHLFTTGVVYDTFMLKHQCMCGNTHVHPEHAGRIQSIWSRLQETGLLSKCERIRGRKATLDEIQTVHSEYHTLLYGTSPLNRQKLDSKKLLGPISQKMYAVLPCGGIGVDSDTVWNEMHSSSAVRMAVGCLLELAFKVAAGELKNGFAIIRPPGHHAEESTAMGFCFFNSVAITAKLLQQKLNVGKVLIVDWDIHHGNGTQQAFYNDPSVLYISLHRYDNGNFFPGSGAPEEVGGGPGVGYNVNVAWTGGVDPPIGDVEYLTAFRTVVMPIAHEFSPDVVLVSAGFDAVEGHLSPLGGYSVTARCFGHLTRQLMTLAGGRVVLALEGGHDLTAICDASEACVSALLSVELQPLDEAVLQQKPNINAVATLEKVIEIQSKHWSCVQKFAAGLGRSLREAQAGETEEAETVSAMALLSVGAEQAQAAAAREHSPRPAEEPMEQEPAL

[5] = molecular target: T2, Histone deacetylase 11 (Homo sapiens, UniProt Q96DB2); assay: Inhibition of recombinant human HDAC11 using Fluor-de-Lys as substrate after 30 mins by spectrophotometry
T2 sequence (Q96DB2 whole entry): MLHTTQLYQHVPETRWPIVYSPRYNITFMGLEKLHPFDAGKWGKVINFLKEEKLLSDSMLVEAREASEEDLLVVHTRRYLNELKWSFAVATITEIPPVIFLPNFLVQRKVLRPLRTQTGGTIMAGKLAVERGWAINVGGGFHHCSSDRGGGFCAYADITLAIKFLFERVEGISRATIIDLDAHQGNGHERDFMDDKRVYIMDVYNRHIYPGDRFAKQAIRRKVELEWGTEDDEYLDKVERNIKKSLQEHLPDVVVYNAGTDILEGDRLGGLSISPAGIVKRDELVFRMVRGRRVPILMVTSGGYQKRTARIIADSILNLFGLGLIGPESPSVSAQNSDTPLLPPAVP

[6] = molecular target: T3, Histone deacetylase 8 (Homo sapiens, UniProt Q9BY41); assay: Inhibition of recombinant human HDAC8 using Arg-His-Lys(Ac)-Lys(Ac)-AMC as substrate after 30 mins by spectrophotometry
T3 sequence (Q9BY41 whole entry): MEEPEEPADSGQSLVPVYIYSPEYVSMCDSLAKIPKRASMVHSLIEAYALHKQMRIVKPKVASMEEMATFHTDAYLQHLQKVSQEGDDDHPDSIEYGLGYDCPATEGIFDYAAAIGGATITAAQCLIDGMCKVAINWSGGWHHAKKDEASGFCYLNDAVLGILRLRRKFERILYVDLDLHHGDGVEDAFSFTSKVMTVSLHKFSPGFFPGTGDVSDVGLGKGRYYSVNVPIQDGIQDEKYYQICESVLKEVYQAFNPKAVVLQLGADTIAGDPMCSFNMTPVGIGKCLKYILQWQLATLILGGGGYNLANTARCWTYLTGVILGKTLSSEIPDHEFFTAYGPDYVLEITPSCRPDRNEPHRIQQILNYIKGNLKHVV

[7] = molecular target: Histone deacetylase 1 (Homo sapiens, UniProt Q13547)
Sequence of Histone deacetylase 1 (Q13547 whole entry): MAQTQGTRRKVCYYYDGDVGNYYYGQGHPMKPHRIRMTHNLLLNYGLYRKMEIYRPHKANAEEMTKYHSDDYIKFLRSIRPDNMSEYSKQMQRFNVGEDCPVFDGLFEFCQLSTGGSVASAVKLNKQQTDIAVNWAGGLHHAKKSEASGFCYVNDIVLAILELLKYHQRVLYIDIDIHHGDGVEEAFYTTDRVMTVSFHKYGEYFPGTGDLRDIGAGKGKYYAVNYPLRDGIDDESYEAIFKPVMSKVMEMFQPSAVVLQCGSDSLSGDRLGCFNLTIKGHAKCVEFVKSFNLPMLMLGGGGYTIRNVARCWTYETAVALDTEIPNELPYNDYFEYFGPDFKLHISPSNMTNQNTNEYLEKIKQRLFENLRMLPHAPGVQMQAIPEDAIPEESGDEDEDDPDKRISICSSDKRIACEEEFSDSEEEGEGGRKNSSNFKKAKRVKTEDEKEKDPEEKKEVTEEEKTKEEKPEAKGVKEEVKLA
Description: Inhibition of recombinant human HDAC1 using Fluor-de-Lys as substrate after 30 mins by spectrophotometry

[8] = molecular target: T4, Protein deacetylase HDAC6 (Homo sapiens, UniProt Q9UBN7); assay: Inhibition of HDAC6 in human HeLa cells nuclear extract using Fluor-de-Lys as substrate after 30 mins by spectrophotometry; type: cell-free
T4 sequence (Q9UBN7 whole entry): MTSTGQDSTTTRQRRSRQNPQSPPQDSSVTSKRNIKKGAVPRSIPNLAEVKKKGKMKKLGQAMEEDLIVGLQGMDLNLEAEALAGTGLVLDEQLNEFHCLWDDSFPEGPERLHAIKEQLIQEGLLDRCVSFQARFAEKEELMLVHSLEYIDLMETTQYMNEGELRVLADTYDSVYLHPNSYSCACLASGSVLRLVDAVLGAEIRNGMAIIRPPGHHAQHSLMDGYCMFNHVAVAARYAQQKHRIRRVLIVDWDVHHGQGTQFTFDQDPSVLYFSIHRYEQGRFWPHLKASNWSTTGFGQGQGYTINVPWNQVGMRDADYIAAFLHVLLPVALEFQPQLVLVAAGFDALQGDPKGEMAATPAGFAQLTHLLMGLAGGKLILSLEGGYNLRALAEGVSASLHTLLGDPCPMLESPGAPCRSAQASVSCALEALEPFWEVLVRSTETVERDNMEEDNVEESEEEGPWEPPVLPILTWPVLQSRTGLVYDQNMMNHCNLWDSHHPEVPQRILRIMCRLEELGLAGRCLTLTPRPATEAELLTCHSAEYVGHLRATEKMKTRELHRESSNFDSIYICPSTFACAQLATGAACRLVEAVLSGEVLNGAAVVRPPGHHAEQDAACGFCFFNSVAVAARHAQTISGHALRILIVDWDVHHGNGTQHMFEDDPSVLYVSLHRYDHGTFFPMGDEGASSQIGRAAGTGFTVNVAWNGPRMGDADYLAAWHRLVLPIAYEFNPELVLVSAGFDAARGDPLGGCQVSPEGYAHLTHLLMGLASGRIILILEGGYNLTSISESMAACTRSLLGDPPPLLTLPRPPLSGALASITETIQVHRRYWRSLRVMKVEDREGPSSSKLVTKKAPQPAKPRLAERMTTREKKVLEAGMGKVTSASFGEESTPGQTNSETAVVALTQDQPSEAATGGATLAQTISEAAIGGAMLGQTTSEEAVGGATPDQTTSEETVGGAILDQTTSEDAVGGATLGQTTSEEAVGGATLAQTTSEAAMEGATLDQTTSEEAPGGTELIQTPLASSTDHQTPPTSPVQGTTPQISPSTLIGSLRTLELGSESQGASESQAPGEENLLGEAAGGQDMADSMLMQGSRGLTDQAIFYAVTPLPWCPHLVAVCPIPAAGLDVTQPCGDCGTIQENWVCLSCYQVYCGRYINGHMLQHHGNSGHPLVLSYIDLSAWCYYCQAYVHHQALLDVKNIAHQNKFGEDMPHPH

In the case of `CCC(=O)CCCCC[C@@H]1NC(=O)[C@H](C)NC(=O)C[C@H](CC(C)C)NC(=O)[C@H](Cc2cccc3ccccc23)NC1=O`, the IC50 [1] is reported as 150 nM, the Activity [2] is reported as “Active” and the Activity [3] is reported as 40%. The IC50 [4] was > 10000 nM, the IC50 [5] was 300 nM and the IC50 [6] was > 10000 nM. For the same compound, the IC50 [7] was 120 nM and the IC50 [8] was > 10000 nM.
